Experimental data taken from patent US20040142819A1, “Compositions and methods for synergistic weed control” (priority 2003, published 2004).

Key:
[1] = system: SORHAZ (johnsongrass, approximate height 3 feet); assay: Field plot weed control, visual % control, rhizome johnsongrass; type: in vivo
Procedure: (§1) In this evaluation, seedling weeds of rhizome johnsongrass and white clover were grown in a field plot until they reached a height of 3 feet (0.9 m) and 3 inches (8 cm) respectively. The plants were then sprayed with an aqueous solution or emulsification of the test compounds at various rates as indicated in Table II. The control % (on a visual basis) is shown in Table II for 7 and 16 days after treatment.
(§2) Sethoxydim is formulated as a 1.5 lb ai/g (0.68 kg ai/g) emulsification.
(§3) Imazapyr is formulated as a 4.0 lb ai/g (1.8 kg ai/g) aqueous solution.
SORHAZ is johnsongrass with an approximate height of 3 feet (0.9 m).

[2] = system: TRFRE (white clover, approximate height 3 inches); assay: Field plot weed control, visual % control, white clover; type: in vivo
Procedure: as §1, §2, §3
TRFRE is white clover with an approximate height of 3 inches (8 cm).

[3] = system: Sorghum halepense (Johnsongrass); assay: Greenhouse post-emergence weed control of seedling johnsongrass, visual % control, Colby expected response
Procedure: In this evaluation, seedling johnsongrass was grown in 9-cm diameter styrofoam cups in a soil medium of a 1:1 mixture of top-soil from a Freestone fine sandy loam (fine-loamy, siliceous, thermic Aquic Paleudalf) and masonry sand. The temperature in the greenhouse was maintained at 31 ″5° C. for several weeks until the plants were approximately 5-inch (13 cm) leaf seedlings. Said plants were then sprayed with an aqueous solution of the test compounds at the rates indicated in Tables Ia and Ib as measured in lbs of herbicide per acre. Each treatment was replicated 4 times and the average control % (on a visual basis) is shown in Table Ia for 10 days after treatment and Table Ib for 20 days after treatment.
The methods described by Colby in “Calculating Synergistic and Antagonistic Responses of Herbicide Combinations,” 15 Weeds 20-22 (1967), were used to calculate interactions of herbicide tank mixtures. The expected response for tank mixtures was calculated by taking the product of the recorded values from the herbicides applied alone and dividing by 100.

[4] = Treatment 3: graminicide 0, imidazolinone 0.008 lb/A (0.009 kg/ha)
[5] = 10 Days After Treatment, Sethoxydim 0 lb/A, imidazolinone 0.008 lb/A (0.009 kg/ha)
[6] = 10 Days After Treatment, Sethoxydim 0 lb/A, imidazolinone 0.016 lb/A (0.018 kg/ha)
[7] = 10 Days After Treatment, Sethoxydim 0 lb/A, imidazolinone 0.032 lb/A (0.036 kg/ha)
[8] = 20 Days After Treatment, Sethoxydim 0 lb/A, imidazolinone 0.008 lb/A (0.009 kg/ha)
[9] = 20 Days After Treatment, Sethoxydim 0 lb/A, imidazolinone 0.016 lb/A (0.018 kg/ha)
[10] = 20 Days After Treatment, Sethoxydim 0 lb/A, imidazolinone 0.032 lb/A (0.036 kg/ha)
[11] = Treatment 2: graminicide 0.20 lb/A (0.22 kg/ha), imidazolinone 0

**Q.** What does the source list for `CC(C)C1(C)N=C(c2ncccc2C(=O)O)NC1=O` (stereo not shown) [imazapyr, (″)-2-[4,5-dihydro-4-methyl-4-(1-methylethyl)-5-oxo-1H-imidazol-2-yl]-3-pyridinecar-boxylic acid]?
**A.** SORHAZ 7 DAT Control (%) [1, 4]: 0%; SORHAZ 16 DAT Control (%) [1, 4]: 0%; TRFRE 7 DAT Control (%) [2, 4]: 0%; TRFRE 16 DAT Control (%) [2, 4]: 0%

**Q.** For `COCc1cnc(C2=NC(C)(C(C)C)C(=O)N2)c(C(=O)O)c1` (stereo not shown) [imazamox, 2-[4,5-dihydro-4-methyl-4-(1-methylethyl)-5-oxo-1H-imidazol-2-yl]-5(methoxymethyl)-3-pyridinecarboxylic acid], which “Actual Control (%)” value ([3]; 10 Days After Treatment, Sethoxydim 0 lb/A, imidazolinone 0.004 lb/A (0.004 kg/ha)) is on record?
**A.** 12.5%

**Q.** What about the “Actual Control (%)” value [3, 5] of the same compound?
**A.** 12.5%

**Q.** What about the “Actual Control (%)” value [3, 6] of the same compound?
**A.** 10%

**Q.** What about the “Actual Control (%)” value [3, 7] of the same compound?
**A.** 10%

**Q.** And the “Actual Control (%)” value ([3]; 20 Days After Treatment, Sethoxydim 0 lb/A, imidazolinone 0.004 lb/A (0.004 kg/ha))?
**A.** 30%

**Q.** And the “Actual Control (%)” value [3, 8]?
**A.** 40%

**Q.** What about the “Actual Control (%)” value [3, 9] of the same compound?
**A.** 40%

**Q.** What about the “Actual Control (%)” value [3, 10] of the same compound?
**A.** 50%

**Q.** How did the “Actual Control (%)” value [3, 5] turn out when `CC(C)C1(C)N=C(c2nc3ccccc3cc2C(=O)O)NC1=O` (stereo not shown) [imazaquin, 2-(4,5-dihydro-4-methyl-4-(1-methyl-ethyl)-5-oxo-1H-imidazol-2-yl]-3-quinolinecarboxylic acid] was run?
**A.** 0%

**Q.** And the “Actual Control (%)” value [3, 6]?
**A.** 0%

**Q.** What about the “Actual Control (%)” value [3, 7] of the same compound?
**A.** 0%

**Q.** And the “Actual Control (%)” value ([3]; 10 Days After Treatment, Sethoxydim 0 lb/A, imidazolinone 0.063 lb/A (0.070 kg/ha))?
**A.** 0%

**Q.** What about the “Actual Control (%)” value [3, 8] of the same compound?
**A.** 0%

**Q.** What about the “Actual Control (%)” value [3, 9] of the same compound?
**A.** 2.5%

**Q.** And the “Actual Control (%)” value [3, 10]?
**A.** 3.8%

**Q.** What about the “Actual Control (%)” value ([3]; 20 Days After Treatment, Sethoxydim 0 lb/A, imidazolinone 0.063 lb/A (0.070 kg/ha)) of the same compound?
**A.** 5%

**Q.** How did the “SORHAZ 7 DAT Control (%)” value [1, 11] turn out when `CCCC(=NOCC)C1=C(O)CC(CC(C)SCC)CC1=O` (stereo not shown) [Sethoxydim, 2-[1-(ethoxyimino)butyl]-5-[2-(ethylthio)propyl]-3-hydroxy-2-cyclohexen-1-one] was run?
**A.** 26.7%

**Q.** What about the “SORHAZ 16 DAT Control (%)” value [1, 11] of the same compound?
**A.** 38.3%

**Q.** And the “TRFRE 7 DAT Control (%)” value [2, 11]?
**A.** 0%

**Q.** What about the “TRFRE 16 DAT Control (%)” value [2, 11] of the same compound?
**A.** 0%

**Q.** What about the “Actual Control (%)” value ([3]; 10 Days After Treatment, Sethoxydim 0.1 lb/A (0.1 kg/ha), no imidazolinone) of the same compound?
**A.** 20%

**Q.** And the “Actual Control (%)” value ([3]; 10 Days After Treatment, Sethoxydim 0.2 lb/A (0.2 kg/ha), no imidazolinone)?
**A.** 87.5%

**Q.** What about the “Actual Control (%)” value ([3]; 20 Days After Treatment, Sethoxydim 0.1 lb/A (0.1 kg/ha), no imidazolinone) of the same compound?
**A.** 30%

**Q.** What about the “Actual Control (%)” value ([3]; 20 Days After Treatment, Sethoxydim 0.2 lb/A (0.2 kg/ha), no imidazolinone) of the same compound?
**A.** 95%
